In PubChem BioAssay (NCI) one finds TGI data, which are given here for 15 molecules.

Among the test systems are NCI-H460 lung; HCT-15 colon; SK-MEL-28 melanoma; RXF 393 renal; CCRF-CEM leukemia; HCT-116 colon; MDA-MB-231 breast; HOP-62 NSCLC; HT29 colon; EKVX NSCLC.
Common to all, as to test: growth of human tumour cells (NCI), 48 h

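96-well plates; 48 h exposure; 5 concentrations. Endpoints by linear interpolation between flanking doses. Not reached: highest tested concentration assigned. TGI marks complete inhibition of growth.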 Bounds are passed on as bounds.

`CCOC(=O)c1c(-c2ccc(Cl)cc2)c(C#N)c(=S)n(C2OC(COC(C)=O)C(OC(C)=O)C(OC(C)=O)C2OC(C)=O)c1-c1ccccc1` (stereo not given): the TGI in the assay with NCI-H460 lung, with HCT-15 colon, with SK-MEL-28 melanoma, with RXF 393 renal, in the assay with CCRF-CEM leukemia and in the assay with HCT-116 colon was over 100 µM each time. The TGI in the assay with MDA-MB-231 breast, in the assay with HOP-62 NSCLC and in the assay on HT29 colon was over 100 µM each time.

For the molecule `Cc1nc2c(o1)C(=Nc1ccccc1)c1ccccc1C2=O`, the TGI was 25.5 µM with NCI-H460 lung; 22.6 µM in the assay on HCT-15 colon; 44 µM in the assay with RXF 393 renal; 27.1 µM with EKVX NSCLC; 45.9 µM in the assay on CCRF-CEM leukemia; 23.2 µM in the assay on HCT-116 colon. Further, the values for the TGI with HOP-62 NSCLC and in the assay on HT29 colon were 28.1 µM and 35.9 µM, respectively.

Consider `CSC1C(=O)Nc2ccc3ccccc3c21` (stereo not given), for which the TGI in the assay with NCI-H460 lung is over 100 µM; in the assay on HCT-15 colon, 38.4 µM; with SK-MEL-28 melanoma it was over 100 µM; in the assay with EKVX NSCLC it was 38.2 µM; in the assay with CCRF-CEM leukemia, 89.3 µM; with HCT-116 colon, 29.9 µM. The TGI was 56.5 µM in the assay on MDA-MB-231 breast, 71.8 µM in the assay on HOP-62 NSCLC and over 100 µM in the assay on HT29 colon.

Take `Oc1ccc(Cl)cc1-c1cc(-c2ccccc2)nc(NCN2CCCCC2)n1`: the TGI in the assay with NCI-H460 lung, with HCT-15 colon, in the assay on SK-MEL-28 melanoma, in the assay with RXF 393 renal, with EKVX NSCLC and in the assay with HCT-116 colon was over 100 µM in each case. For the same molecule, the TGI with MDA-MB-231 breast, with HOP-62 NSCLC and in the assay with HT29 colon was over 100 µM each time.

`O=C(O)C[C@@H]1[C@@H](O)[C@@H](O)CN2C(=O)c3ccccc3[C@H]12`: the TGI with NCI-H460 lung, in the assay with HCT-15 colon, with SK-MEL-28 melanoma, with RXF 393 renal, in the assay on EKVX NSCLC and in the assay with HCT-116 colon was over 100 µM throughout. Also, the TGI with MDA-MB-231 breast, with HOP-62 NSCLC and in the assay on HT29 colon was over 100 µM throughout.

As to `CN(CCO)CCCC1COc2ccccc2O1` (stereo not given), the TGI in the assay with NCI-H460 lung, in the assay on HCT-15 colon, in the assay with SK-MEL-28 melanoma, in the assay on RXF 393 renal, in the assay on EKVX NSCLC and with CCRF-CEM leukemia was over 100 µM in each case. Moreover, the TGI with HCT-116 colon, in the assay on HOP-62 NSCLC and in the assay with HT29 colon was over 100 µM throughout.

Consider `CC(=O)c1ccccc1NCC(=O)Nn1cnc2ccc(S(=O)(=O)Nc3ccccc3C(C)=O)cc2c1=O`, for which the TGI with NCI-H460 lung, with HCT-15 colon, in the assay on SK-MEL-28 melanoma, in the assay with EKVX NSCLC, in the assay on CCRF-CEM leukemia and in the assay on HCT-116 colon was over 100 µM in each case. The TGI in the assay on MDA-MB-231 breast, with HOP-62 NSCLC and in the assay on HT29 colon was over 100 µM in each case.

Turning to `O=c1cc(NNc2cccc(F)c2)[nH]c(=O)[nH]1`, the TGI with NCI-H460 lung was over 100 µM; in the assay with HCT-15 colon, 30.9 µM; in the assay with SK-MEL-28 melanoma it was over 100 µM; in the assay on RXF 393 renal it was 35.1 µM; with CCRF-CEM leukemia, 55.9 µM; with HCT-116 colon it was 31 µM. The TGI with MDA-MB-231 breast was 30.4 µM; in the assay on HOP-62 NSCLC, over 100 µM; in the assay with HT29 colon it was 29.9 µM.

As for `O=c1[nH]c2ccccc2c(O)c1/C=N/C(=S)NCc1ccccc1`, the TGI in the assay on SK-MEL-28 melanoma, in the assay with EKVX NSCLC, in the assay with HCT-116 colon, in the assay with MDA-MB-231 breast, in the assay with HOP-62 NSCLC and in the assay on HT29 colon was over 100 µM throughout.

Regarding `Brc1ccc2c3c1[C@H]1O[C@H]1c1cccc(c1-3)[C@@H]1O[C@H]21`, the TGI in the assay on HCT-15 colon was 49.1 µM; in the assay on SK-MEL-28 melanoma it was 36.5 µM; with EKVX NSCLC, 36.5 µM; with HCT-116 colon, 37.8 µM; in the assay with MDA-MB-231 breast it was 40.6 µM; in the assay with HOP-62 NSCLC, 30.3 µM. For the same molecule, in the assay with HT29 colon, the TGI stood at 34.7 µM.

Consider `CCn1c(SC(C)C(=O)c2c(C)n(C)n(-c3ccccc3)c2=O)nc2ccccc2c1=O` (stereo not given), for which the TGI with NCI-H460 lung, in the assay with HCT-15 colon, with SK-MEL-28 melanoma, in the assay on EKVX NSCLC, in the assay with CCRF-CEM leukemia and in the assay with HCT-116 colon was over 100 µM throughout. The TGI in the assay on HOP-62 NSCLC and in the assay on HT29 colon was over 100 µM each time.

With `NC(=O)c1ccccc1NC(=O)C(=O)Cc1nc2ccccc2[nH]c1=O`, the TGI in the assay with NCI-H460 lung, with HCT-15 colon, with SK-MEL-28 melanoma, in the assay with RXF 393 renal, with EKVX NSCLC and with CCRF-CEM leukemia was over 100 µM throughout. Besides, the TGI with HCT-116 colon and in the assay with HOP-62 NSCLC was over 100 µM each time.

Consider `CCN(CC)c1ccc(N=Nc2ccc([N+](=O)[O-])cc2OC(=O)/C=C/c2ccccc2)c(OC(=O)/C=C/c2ccccc2)c1`, for which the TGI in the assay with NCI-H460 lung is 11.1 µM; in the assay with HCT-15 colon, over 100 µM; in the assay with SK-MEL-28 melanoma it was over 100 µM; with RXF 393 renal, over 100 µM; with EKVX NSCLC, over 100 µM; with CCRF-CEM leukemia, over 100 µM. Further, the TGI with HCT-116 colon, in the assay with HOP-62 NSCLC and in the assay with HT29 colon was over 100 µM in each case.

For the molecule `COc1ccc2c(c1)C/C(=C\c1cccc3ccccc13)C2=O`, the TGI in the assay on NCI-H460 lung is over 100 µM; in the assay with HCT-15 colon, over 100 µM; in the assay with SK-MEL-28 melanoma, over 100 µM; in the assay with RXF 393 renal, 22.5 µM; with EKVX NSCLC it was over 100 µM; with CCRF-CEM leukemia it was over 100 µM. For the same molecule, in the assay on HT29 colon, the TGI was over 100 µM.

Regarding `COc1cc(C2SC(C)C(=O)N2c2ccc(-c3csc(NS(=O)(=O)c4ccc(Cl)c(OC)c4)n3)cc2)ccc1O` (stereo not given), the TGI with NCI-H460 lung, in the assay on HCT-15 colon, in the assay on SK-MEL-28 melanoma, in the assay on RXF 393 renal, in the assay with CCRF-CEM leukemia and with HCT-116 colon was over 100 µM each time. The TGI in the assay on MDA-MB-231 breast, in the assay on HOP-62 NSCLC and with HT29 colon was over 100 µM in each case.
